Data taken from patent publication US11981669B2, “1,7-naphthyridine derivative and preparation method and use therefor” (CSPC ZHONGQI PHARMACEUTICAL TECHNOLOGY (SHIJIAZHUANG) CO., …, priority 2018, dated 2024).

How the values were obtained:
CYP1A2 = CYP1A2 (Homo sapiens (Human), UniProt P05177); type: in vitro ADME
Excerpt: (§1) The compounds of the present disclosure were subjected to the CYP450 enzyme inhibition assay.

HIF-1α = assay: Expression of HIF-1α protein in Hep3B cells (western blot, grayscale analysis); type: cell-based, Human; details: for fold induction at 30 µM: Homo sapiens, 2 h, compound at 30 μM, 10 μM and 3 μM, read-out: HIF-1α level of the compound of the present disclosure/HIF-1α level of blank control
Procedure: (§2) A test compound was dissolved in dimethyl sulfoxide into a 100 mM stock solution, and then was diluted with 0.5% FBS-containing DMEM medium into 30 μM, 10 μM and 3 μM for later use. Human liver cancer cells Hep3B were seeded in a six-well plate at a density of 2.25*10^5 cells/well, 2 mL per well. After cultivation overnight, the cells were treated with compounds at different concentrations for 2 h. The proteins were extracted for western blot and further grayscale analysis.

HIF-2α = assay: Expression of HIF-2α protein in Hep3B cells (western blot, grayscale analysis); type: cell-based, Human; details: for fold induction at 30 µM: Homo sapiens, 2 h, compound at 30 μM, 10 μM and 3 μM, read-out: HIF-2α level of the compound of the present disclosure/HIF-2α level of blank control
Procedure: as §2

hERG channels = hERG channels (Homo sapiens (Human), UniProt Q12809); assay: cell-based; type: cell-based; details: for Inhibitory effect on hERG current at the highest test concentration: human, 30 μM
Chain of hERG channels (Q12809 whole entry, the tested form may be a part): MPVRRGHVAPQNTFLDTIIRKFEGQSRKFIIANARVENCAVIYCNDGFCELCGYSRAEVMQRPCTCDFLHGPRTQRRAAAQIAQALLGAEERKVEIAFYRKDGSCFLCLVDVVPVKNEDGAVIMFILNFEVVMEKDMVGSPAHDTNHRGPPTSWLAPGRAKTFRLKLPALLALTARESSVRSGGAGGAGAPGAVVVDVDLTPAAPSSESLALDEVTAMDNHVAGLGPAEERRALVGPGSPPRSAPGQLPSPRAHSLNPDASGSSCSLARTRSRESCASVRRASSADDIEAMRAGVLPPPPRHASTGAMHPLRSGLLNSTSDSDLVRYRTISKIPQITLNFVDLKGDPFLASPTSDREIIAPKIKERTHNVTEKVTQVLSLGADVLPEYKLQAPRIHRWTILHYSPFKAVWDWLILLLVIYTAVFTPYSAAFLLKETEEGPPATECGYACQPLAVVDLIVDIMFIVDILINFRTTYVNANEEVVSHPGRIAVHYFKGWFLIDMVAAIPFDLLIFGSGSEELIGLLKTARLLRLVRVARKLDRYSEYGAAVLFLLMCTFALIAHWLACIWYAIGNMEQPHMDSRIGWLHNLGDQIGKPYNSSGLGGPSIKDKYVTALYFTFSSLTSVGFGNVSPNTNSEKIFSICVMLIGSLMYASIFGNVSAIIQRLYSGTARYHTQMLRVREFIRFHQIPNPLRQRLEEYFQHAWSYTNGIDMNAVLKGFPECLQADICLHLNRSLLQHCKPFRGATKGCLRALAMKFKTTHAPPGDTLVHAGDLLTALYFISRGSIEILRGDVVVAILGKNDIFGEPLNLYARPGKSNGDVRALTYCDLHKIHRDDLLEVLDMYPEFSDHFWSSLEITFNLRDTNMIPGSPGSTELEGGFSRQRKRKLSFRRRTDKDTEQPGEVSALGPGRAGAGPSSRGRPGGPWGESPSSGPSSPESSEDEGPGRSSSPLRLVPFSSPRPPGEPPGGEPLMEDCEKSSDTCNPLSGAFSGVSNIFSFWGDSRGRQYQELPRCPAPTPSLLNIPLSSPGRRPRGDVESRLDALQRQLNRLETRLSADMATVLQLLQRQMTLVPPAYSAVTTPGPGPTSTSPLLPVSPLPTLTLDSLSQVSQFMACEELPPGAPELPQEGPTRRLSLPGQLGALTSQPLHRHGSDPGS
Procedure: Whole-cell patch clamp technique was used to record hERG current. A cell suspension was added to a 35 mm Petri dish, and the dish was then placed on an inverted microscope stage. After the adherence of cells, they were perfused with extracellular fluid at a flow rate of 1-2 mL/min. A glass microelectrode was drawn by a microelectrode puller in two steps, and the pipette tip resistance was between 2-5 MΩ. After establishing the whole cell recording, the clamp potential was held at −80 mV, followed by depolarization to +60 mV when given voltage stimulation and then repolarization to −50 mV to elicit hERG tail current. All recordings were performed after the current was stable. Extracellular perfusion administration started from a low concentration, staying for 5-10 min at each concentration until the current was stable, and then cells were further perfused with the next concentration.

PHD2 = PHD2 (Homo sapiens (Human), UniProt Q9GZT9); assay: PHD enzyme assay (Eu-VBC TR-fluorescence); type: biochemical
Chain of PHD2 (Q9GZT9 whole entry): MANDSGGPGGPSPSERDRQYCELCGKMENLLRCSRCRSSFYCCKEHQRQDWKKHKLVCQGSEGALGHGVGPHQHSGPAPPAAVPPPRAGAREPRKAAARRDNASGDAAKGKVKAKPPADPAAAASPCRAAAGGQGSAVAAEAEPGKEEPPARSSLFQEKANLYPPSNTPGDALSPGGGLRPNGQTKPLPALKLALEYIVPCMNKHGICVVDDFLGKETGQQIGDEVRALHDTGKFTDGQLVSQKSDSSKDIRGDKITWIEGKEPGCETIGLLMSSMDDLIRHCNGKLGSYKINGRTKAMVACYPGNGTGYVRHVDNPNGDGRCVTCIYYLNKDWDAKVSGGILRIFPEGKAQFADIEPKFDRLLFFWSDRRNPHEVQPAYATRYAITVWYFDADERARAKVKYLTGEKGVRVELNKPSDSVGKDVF
Procedure: VHL/elongin B/elongin C were constructed, expressed and purified, and VHL was labeled. PHD1, PHD2 and PHD3 were constructed, expressed and purified. VBC protein was labeled with DELFIA Eu-Labeling Kit. A NeutrAvidin 96-well plate was blocked after the addition of 200 μL Blocker Casein to each well, followed by incubation for 30 min. Each well was washed 3 times by adding 200 μL of washing buffer each time. […] Each well was washed 3 times by adding 200 μL of washing buffer each time. A 1 mM Biotin solution was prepared with Blocker Casein, and 100 μL of the solution was added to each well, followed by incubation for 30 min. Each well was washed 3 times by adding 200 μL of washing buffer each time. A 20× compound solution was prepared with PHD reaction buffer, with the final concentration of DMSO being 1%. […] After mixing homogeneously, the wells were incubated for 60 min. Each well was washed 3 times by adding 200 μL of washing buffer each time A 1 ng/μL Eu-VBC solution was prepared with Eu-VBC binding buffer, and 100 μL of the solution was added to each well, followed by incubation for 60 min. Each well was washed 6 times by adding 200 μL DELFIA Wash Concentrate each time. 100 μL DELFIA Enhancement Solution was added to each well. […] The flurescence of the sample wells was recorded as FLUsample, the flurescence of the full active wells was recorded as FLU100%, and the flurescence of the blank well was recorded as FLU0%.

erythropoietin = assay: Expression of erythropoietin in vivo (plasma EPO ELISA after single oral dose); details: once; for EPO OD value: plasma 6 hours after administration; for Promotion of expression of erythropoietin in vivo: at 10 mg/kg;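 on all read-outs here: male C57 mice given compound by mouth, five animals per treatment group, with EPO in plasma measured by ELISA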
Procedure: (2) 30 c57 mice, male, were divided into 6 groups, 5 mice in each treatment group. […] 6 hours after the administration, blood was taken, and plasma was collected for EPO detection with an ELISA kit (R&D Co.).

reticulocytes = assay: Effect on reticulocytes of normal mice; type: in vivo, Balb/c mice; design: Reticulocytes (RETIC), average: unit not given here; details: 10 mg/kg p.o., once; 72 h after administration
Procedure: 72 Balb/c mice, male, were divided into 12 groups, 6 mice in each treatment group. In the positive drug control groups: the mice in the FG-4592 treatment groups were orally administered once, at two doses of 10 mg/kg and 50 mg/kg, and the mice in the rhEPO treatment group was intraperitoneaily injected once, at a dose of 100 IU/kg. The compounds of the present disclosure were all orally administered once at a dose of 10 mg/kg. 72 h after the administration, blood was collected from the orbit of all animals, and subjected to EDTA-K2 anticoagulation. Then reticulocytes (RETIC) were counted with an automatic blood cell analyzer.

[1] = tested on: Erythropoietin in liver cancer cells Hep3B; assay: Expression of erythropoietin in liver cancer cells Hep3B in vitro (EPO ELISA of supernatant); type: cell-based, Human
Procedure: The cells were adherent cultured overnight, and after discarding the used medium. In the 96-well culture plate, the cells were washed once with 0.5% FBS-containing DMEM medium. […] 0.5% FBS-containing DMEM medium was used instead of the drug solution as the control well. After incubation in a 37° C., 5% CO2 incubator for 24 h, the supernatant was taken as a sample and frozen at −20° C. for later use. An Elisa kit (abeam) was used to detect EPO in the cell supernatant. A microplate reader was used to detect the OD value at 450/620 nm.

CYP3A4-M = CYP3A4-M (Homo sapiens (Human), UniProt P08684); assay: CYP enzyme inhibition assay; type: in vitro ADME
Chain of CYP3A4-M (P08684 whole entry): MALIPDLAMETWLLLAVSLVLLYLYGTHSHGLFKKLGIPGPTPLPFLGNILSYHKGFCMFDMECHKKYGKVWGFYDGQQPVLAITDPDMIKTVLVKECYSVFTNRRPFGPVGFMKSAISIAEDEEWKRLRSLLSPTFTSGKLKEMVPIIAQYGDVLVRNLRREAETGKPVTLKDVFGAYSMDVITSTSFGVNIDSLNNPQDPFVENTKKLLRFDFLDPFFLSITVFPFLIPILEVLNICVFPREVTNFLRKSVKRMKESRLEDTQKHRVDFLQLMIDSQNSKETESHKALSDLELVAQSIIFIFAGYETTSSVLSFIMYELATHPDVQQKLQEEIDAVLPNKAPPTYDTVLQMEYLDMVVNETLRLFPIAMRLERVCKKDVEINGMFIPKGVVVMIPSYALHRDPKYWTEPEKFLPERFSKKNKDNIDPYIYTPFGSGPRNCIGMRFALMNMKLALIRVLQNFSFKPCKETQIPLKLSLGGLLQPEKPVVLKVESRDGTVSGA
Excerpt: as §1

CYP2C19 = CYP2C19 (Homo sapiens (Human), UniProt P33261); assay: CYP enzyme inhibition assay; type: in vitro ADME
Chain of CYP2C19 (P33261 whole entry): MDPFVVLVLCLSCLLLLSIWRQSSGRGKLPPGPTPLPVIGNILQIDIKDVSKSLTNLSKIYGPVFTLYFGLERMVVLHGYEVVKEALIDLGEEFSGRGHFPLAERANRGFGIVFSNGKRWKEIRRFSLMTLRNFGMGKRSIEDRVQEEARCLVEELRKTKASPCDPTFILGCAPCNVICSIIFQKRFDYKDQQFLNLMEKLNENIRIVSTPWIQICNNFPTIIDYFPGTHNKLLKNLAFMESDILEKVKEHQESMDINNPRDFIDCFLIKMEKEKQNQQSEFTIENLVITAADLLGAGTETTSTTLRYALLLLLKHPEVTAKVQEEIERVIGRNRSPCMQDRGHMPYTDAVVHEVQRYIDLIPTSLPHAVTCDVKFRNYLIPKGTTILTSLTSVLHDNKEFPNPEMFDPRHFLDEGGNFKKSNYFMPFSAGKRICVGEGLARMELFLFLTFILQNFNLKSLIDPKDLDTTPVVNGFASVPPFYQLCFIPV
Excerpt: as §1

CYP2C9 = CYP2C9 (Homo sapiens (Human), UniProt P11712); assay: CYP enzyme inhibition assay; type: in vitro ADME
Chain of CYP2C9 (P11712 whole entry): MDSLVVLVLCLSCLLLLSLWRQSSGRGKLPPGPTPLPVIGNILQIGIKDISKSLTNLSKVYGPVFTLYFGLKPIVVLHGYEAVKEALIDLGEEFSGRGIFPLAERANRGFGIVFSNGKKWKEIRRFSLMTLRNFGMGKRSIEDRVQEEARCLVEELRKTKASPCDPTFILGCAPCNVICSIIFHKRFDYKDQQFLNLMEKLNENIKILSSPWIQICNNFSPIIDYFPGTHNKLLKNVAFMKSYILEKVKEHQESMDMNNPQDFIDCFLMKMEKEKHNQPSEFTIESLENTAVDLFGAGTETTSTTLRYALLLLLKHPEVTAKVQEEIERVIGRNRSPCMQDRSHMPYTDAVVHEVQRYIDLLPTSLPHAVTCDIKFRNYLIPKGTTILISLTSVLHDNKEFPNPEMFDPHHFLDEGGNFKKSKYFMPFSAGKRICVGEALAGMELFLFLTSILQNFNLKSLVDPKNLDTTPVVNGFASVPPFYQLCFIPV
Excerpt: as §1

CYP2D6 = CYP2D6 (Homo sapiens (Human), UniProt P10635); assay: CYP enzyme inhibition assay; type: in vitro ADME
Chain of CYP2D6 (P10635 whole entry): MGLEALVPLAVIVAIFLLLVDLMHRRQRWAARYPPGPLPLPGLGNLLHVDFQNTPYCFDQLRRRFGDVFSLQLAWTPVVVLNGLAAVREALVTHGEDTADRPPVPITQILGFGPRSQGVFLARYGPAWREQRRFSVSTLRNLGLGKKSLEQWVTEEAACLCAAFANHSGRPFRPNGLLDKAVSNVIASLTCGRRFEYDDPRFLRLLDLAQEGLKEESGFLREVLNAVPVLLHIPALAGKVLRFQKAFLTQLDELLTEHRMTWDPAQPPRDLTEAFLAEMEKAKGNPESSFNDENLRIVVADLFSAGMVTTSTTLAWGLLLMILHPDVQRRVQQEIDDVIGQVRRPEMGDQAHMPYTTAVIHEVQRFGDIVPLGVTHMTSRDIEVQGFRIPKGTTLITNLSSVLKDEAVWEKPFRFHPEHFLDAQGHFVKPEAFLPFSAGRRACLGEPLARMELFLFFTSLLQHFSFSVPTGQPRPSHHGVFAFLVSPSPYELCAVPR
Excerpt: as §1

Chain of CYP1A2 (P05177 whole entry): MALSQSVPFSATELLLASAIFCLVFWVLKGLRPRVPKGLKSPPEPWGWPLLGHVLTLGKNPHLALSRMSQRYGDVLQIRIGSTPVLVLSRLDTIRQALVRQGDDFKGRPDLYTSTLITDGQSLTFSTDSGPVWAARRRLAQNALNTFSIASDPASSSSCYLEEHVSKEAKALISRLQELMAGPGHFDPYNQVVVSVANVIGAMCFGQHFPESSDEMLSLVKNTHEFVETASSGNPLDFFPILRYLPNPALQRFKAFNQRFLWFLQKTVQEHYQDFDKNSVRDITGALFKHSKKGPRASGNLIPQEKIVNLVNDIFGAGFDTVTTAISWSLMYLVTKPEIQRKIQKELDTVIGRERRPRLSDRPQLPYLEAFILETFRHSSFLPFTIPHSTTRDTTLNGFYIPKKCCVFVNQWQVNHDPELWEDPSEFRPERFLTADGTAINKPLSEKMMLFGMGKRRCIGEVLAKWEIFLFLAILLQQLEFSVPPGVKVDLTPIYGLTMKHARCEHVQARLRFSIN

Structure (SMILES)	IC50 (CYP1A2)	HIF-1α protein expression compared with blank control (HIF-1α)	fold induction at 30 µM (HIF-1α)	HIF-2α protein expression compared with blank control (HIF-2α)	fold induction at 30 µM (HIF-2α)	IC50 (hERG channels)	Inhibitory effect on hERG current at the highest test concentration (hERG channels)	Effect on PHD2 compared with compounds of Comparative Examples 1-3 (PHD2)	IC50 (PHD2)	EPO OD value (erythropoietin; 10 mg/kg)	EPO OD value (erythropoietin; 50 mg/kg)	Promotion of expression of erythropoietin in vivo (erythropoietin)	Reticulocytes (RETIC), average (reticulocytes)	EPO-enhancing effect compared with positive control drug FG4592 [1]	IC50 (CYP3A4-M)	IC50 (CYP2C19)	IC50 (CYP2C9)	IC50 (CYP2D6)	Promoting effect on HIF-1α expression compared with FG4592 (HIF-1α)
O=C(O)CNC(=O)c1nc(Br)c2nc(Oc3ccccc3)ccc2c1O [Link-121, 2-(2-phenoxy-5-hydroxy-8-bromo-1,7-naphthyridine-6-formamido) Acetic Acid]	> 50 µM	higher than that of the blank control	4.5 to 8.5	higher than that of the blank control	4.5 to 8.5	> 30 µM	far from the IC50 value	better effect	353 nM	C (C represents 2<EPO OD value<3)	D (D represents EPO OD value>3)	significantly promote the expression of erythropoietin	7.28	higher than that of the positive control drug FG4592	> 50 µM	> 50 µM	> 50 µM	> 50 µM	–
O=C(O)CNC(=O)c1nc(Cl)c2nc(Oc3ccccc3)ccc2c1O [Link-118, 2-(2-phenoxy-5-hydroxy-8-chloro-1,7-naphthyridine-6-formamido) Acetic Acid]	> 50 µM	higher than that of the blank control	> 10	higher than that of the blank control	4.5 to 8.5	> 30 µM	far from the IC50 value	better effect	207 nM	D (D represents EPO OD value>3)	D (D represents EPO OD value>3)	significantly promote the expression of erythropoietin	8.62	higher than that of the positive control drug FG4592	> 50 µM	> 50 µM	> 50 µM	> 50 µM	stronger than that of the positive control drug FG4592
